Key:
Serum total cholesterol = Serum total cholesterol lowering in rats dosed 9 days with CGS23425 in diet with and without fenofibrate
Method: Male Sprague-Dawley rats (wt 125-150 g, 10 per group) were acclimated for one week with a normal chow (Purina #5001 powder) and had free access to drinking water. The animals, with increased weight to about 200 to 250 grams, were dosed 9 days with various doses of CGS23425 (0, 0.005, 0.05 and 0.5 ppm in diet, where total diet consumption was about 10 to 15 grams per day) with and without the presence of 25 mg/kg of body weight of fenofibrate given via oral gavage once a day. After the dosing period, the animals were fasted for 18 hours and euthanized and the blood was withdrawn via cardiac puncture.

Serum cholesterol = Serum cholesterol lowering in dogs dosed 15 days with fenofibrate, CGS23425 or the combination; assay type: in vivo
Method: Dogs were administered 50 mg/kg/day fenofibrate alone, 10 μg/kg/day CGS23425 alone, or the combination of 50 mg/kg/day fenofibrate +10 μg/kg/day CGS23425 for a period of 15 days. Cholesterol lowering was measured on treatment days 6, 8, 10, 13, 14, and 15.

## CC(C)OC(=O)C(C)(C)Oc1ccc(C(=O)c2ccc(Cl)cc2)cc1 [Fenofibrate, fenofibrate]
Serum total cholesterol; fenofibrate 25 mg/kg oral gavage once a day alone (CGS23425 0 ppm), fasted 18 hours
  Serum cholesterol lowering in rats (% reduction): 12 ± 5 % reduction
Serum total cholesterol; fenofibrate 25 mg/kg oral gavage once a day alone (CGS23425 0 ppm), fasted 18 hours, listed as fenofibrate
  Serum cholesterol lowering in rats (% reduction): 12±5 % reduction
Serum cholesterol; fenofibrate 50 mg/kg/day alone, treatment day 6
  Serum cholesterol lowering in dogs (% reduction): 0.1 ± 2.5 % reduction
Serum cholesterol; fenofibrate 50 mg/kg/day alone, treatment day 8
  Serum cholesterol lowering in dogs (% reduction): 3.5 ± 1.8 % reduction
Serum cholesterol; fenofibrate 50 mg/kg/day alone, treatment day 10
  Serum cholesterol lowering in dogs (% reduction): 8.6 ± 3.4 % reduction
Serum cholesterol; fenofibrate 50 mg/kg/day alone, treatment day 13
  Serum cholesterol lowering in dogs (% reduction): 12.1 ± 4.3 % reduction
Serum cholesterol; fenofibrate 50 mg/kg/day alone, treatment day 14
  Serum cholesterol lowering in dogs (% reduction): 12.4 ± 7.5 % reduction
Serum cholesterol; fenofibrate 50 mg/kg/day alone, treatment day 15
  Serum cholesterol lowering in dogs (% reduction): 14.3 ± 4.0 % reduction

## Cc1cc(NC(=O)C(=O)O)cc(C)c1Oc1ccc(O)c(C(C)C)c1 [CGS23425, N-[3,5-dimethyl-4-(4′-hydroxy-3′-isopropylphenoxy)-phenyl]-oxamic acid]
Serum total cholesterol; CGS23425 0.005 ppm in diet alone (fenofibrate 0 mg/kg)
  Serum cholesterol lowering in rats (% reduction): 4 ± 6 % reduction
Serum total cholesterol; CGS23425 0.05 ppm in diet alone (fenofibrate 0 mg/kg)
  Serum cholesterol lowering in rats (% reduction): 9±4 % reduction
Serum total cholesterol; CGS23425 0.5 ppm in diet alone (fenofibrate 0 mg/kg)
  Serum cholesterol lowering in rats (% reduction): 3 ± 7 % reduction
Serum cholesterol; CGS23425 10 μg/kg/day alone, treatment day 6
  Serum cholesterol lowering in dogs (% reduction): 13 ± 1.2 % reduction
Serum cholesterol; CGS23425 10 μg/kg/day alone, treatment day 8
  Serum cholesterol lowering in dogs (% reduction): 15.4 ± 2.3 % reduction
Serum cholesterol; CGS23425 10 μg/kg/day alone, treatment day 10
  Serum cholesterol lowering in dogs (% reduction): 18.4 ± 3.0 % reduction
Serum cholesterol; CGS23425 10 μg/kg/day alone, treatment day 13
  Serum cholesterol lowering in dogs (% reduction): 22.9 ± 2.5 % reduction
Serum cholesterol; CGS23425 10 μg/kg/day alone, treatment day 14
  Serum cholesterol lowering in dogs (% reduction): 21.1 ± 3.9 % reduction
Serum cholesterol; CGS23425 10 μg/kg/day alone, treatment day 15
  Serum cholesterol lowering in dogs (% reduction): 24.3 ± 1.7 % reduction

— patent publication US6680340B2, “Anti-hypercholesterolemic drug combination” (Merck & Co., Inc., priority 2000, dated 2004)
